Data as given in patent US10647721B2, “Bicyclic heteroaryl derivatives” (Hoffmann-La Roche Inc., priority 2016, dated 2020).

Each molecule was assayed on γ-secretase (assay: Cellular γ-secretase assay (inhibition of Aβ42 secretion, AlphaLisa)). Settings: human neuroglioma H4 cells overexpressing human APP695 Swedish double mutation, 24 hr compound incubation.
Format: cell-based
Description: Cellular γ-Secretase Assay
Human neuroglioma H4 cells overexpressing human APP695 with the Swedish double mutation (K595N/M596L) were plated at 30,000 cells/well/100 μl in 96-well plates in IMDM media containing 10% FCS, 0.2 mg/l Hygromycin B and incubated at 37° C., 5% CO2.
3-4 hr post plating, compounds are a diluted in media and 50 μl is added as 1.5-fold concentrate to achieve the final concentration. Compound incubation is performed for 24 hr. Final doses typically range from 4 μm down to 0.0013 μm in half-log steps resulting in a eight point dose response curve.
Appropriate controls using vehicle only and reference compound were applied to this assay. The final concentration of Me2SO was 0.4%.
After incubation at 37° C., 5% CO2, the supernatant was subjected to quantification of secreted Aβ42 by the means of an AlphaLisa assay kit (Human Amyloid beta 1-42 Kit: Cat # AL203C, Perkin Elmer). 20 μl of the cell culture supernatant was transferred to an assay plate. Then 10 μl of a mixture of the AlphaLisa coupled capture antibody and the biotinylated detection antibody was added and incubated for 3 hours at room temperature while softly shaking the assay plate. After a further addition of 20 μl of the Donor beads the assay plate was incubated for 30 min at room temperature and constant shaking without exposure to direct light. The assay plate was then read on a Paradigm AlphaLisa Reader using the build-in program with excitation at 680 nm and emission at […].
The measured signals were then used to calculate IC50 values for inhibition of Aβ42 secretion by nonlinear regression fit analysis using XLfit 5.3 software (IDBS).

SMILES	EC50 [nM]
Cc1ncn(-c2ccc(Nc3nc4n(n3)CCCN4c3ccc(F)c(F)c3)cc2OC(F)F)n1 [Example 1, N-[3-(difluoromethoxy)-4-(3-methyl-1,2,4-triazol-1-yl)phenyl]-4-(3,4-difluorophenyl)-6,7-dihydro-5H-[1,2,4]triazolo[1,5-a]pyrimidin-2-amine]	16.6
COc1cc(Nc2nc3n(n2)CCCN3c2ccc(F)c(F)c2)ccc1-n1cnc(C)n1 [Example 2, 4-(3,4-difluorophenyl)-N-[3-methoxy-4-(3-methyl-1,2,4-triazol-1-yl)phenyl]-6,7-dihydro-5H-[1,2,4]triazolo[1,5-a]pyrimidin-2-amine]	14.2
COc1cc(Nc2nc3n(n2)CCCN3c2ccc(F)c(F)c2)ccc1-n1cnc(C(F)(F)F)c1 [Example 3, 4-(3,4-difluorophenyl)-N-[3-methoxy-4-[4-(trifluoromethyl)imidazol-1-yl]phenyl]-6,7-dihydro-5H-[1,2,4]triazolo[1,5-a]pyrimidin-2-amine]	37
COc1cc(Nc2nc3n(n2)CCCN3c2ccc(F)c(F)c2)ccc1-c1cnc(C)o1 [Example 4, 4-(3,4-difluorophenyl)-N-[3-methoxy-4-(2-methyloxazol-5-yl)phenyl]-6,7-dihydro-5H-[1,2,4]triazolo[1,5-a]pyrimidin-2-amine]	14.3
COc1cc(Nc2nc3n(n2)CCCN3c2ccc(F)c(F)c2)cnc1-n1cnc(Cl)c1 [Example 5, N-[6-(4-chloroimidazol-1-yl)-5-methoxy-3-pyridyl]-4-(3,4-difluorophenyl)-6,7-dihydro-5H-[1,2,4]triazolo[1,5-a]pyrimidin-2-amine]	21.4
COc1cc(Nc2nc3n(n2)CCCN3c2ccc(F)c(F)c2)ccc1-n1cnc(Cl)c1 [Example 6, N-[4-(4-chloroimidazol-1-yl)-3-methoxy-phenyl]-4-(3,4-difluorophenyl)-6,7-dihydro-5H-[1,2,4]triazolo[1,5-a]pyrimidin-2-amine]	8.3
COc1cc(Nc2nc3n(n2)CCCCN3c2ccc(F)c(F)c2)ccc1-c1cnc(C)o1 [Example 7, 4-(3,4-difluorophenyl)-N-[3-methoxy-4-(2-methyloxazol-5-yl)phenyl]-5,6,7,8-tetrahydro-[1,2,4]triazolo[1,5-a][1,3]diazepin-2-amine]	13.2
COc1cc(Nc2nc3n(n2)CCCCN3c2ccc(F)c(F)c2)ccc1-n1cnc(C)n1 [Example 8, 4-(3,4-difluorophenyl)-N-[3-methoxy-4-(3-methyl-1,2,4-triazol-1-yl)phenyl]-5,6,7,8-tetrahydro-[1,2,4]triazolo[1,5-a][1,3]diazepin-2-amine]	35.8
COc1cc(Nc2nc3n(n2)CCCCN3c2ccc(F)c(F)c2)ccc1-n1cnc(Cl)c1 [Example 9, N-[4-(4-chloroimidazol-1-yl)-3-methoxy-phenyl]-4-(3,4-difluorophenyl)-5,6,7,8-tetrahydro-[1,2,4]triazolo[1,5-a][1,3]diazepin-2-amine]	22.4
COc1cc(Nc2nc3n(n2)CCCCN3c2ccc(F)c(F)c2)ccc1-n1cnc(C(F)(F)F)c1 [Example 10, 4-(3,4-difluorophenyl)-N-[3-methoxy-4-[4-(trifluoromethyl)imidazol-1-yl]phenyl]-5,6,7,8-tetrahydro-[1,2,4]triazolo[1,5-a][1,3]diazepin-2-amine]	61.9
Cc1ncn(-c2ccc(Nc3nc4n(n3)CCCN4c3ccc(F)c(F)c3)cc2F)n1 [Example 11, 4-(3,4-difluorophenyl)-N-[3-fluoro-4-(3-methyl-1,2,4-triazol-1-yl)phenyl]-6,7-dihydro-5H-[1,2,4]triazolo[1,5-a]pyrimidin-2-amine]	34.5
COc1cc(Nc2nc3n(n2)CCCN3c2ccc(F)c(F)c2)ccc1-n1cnc(Cl)n1 [Example 12, N-[4-(3-chloro-1,2,4-triazol-1-yl)-3-methoxy-phenyl]-4-(3,4-difluorophenyl)-6,7-dihydro-5H-[1,2,4]triazolo[1,5-a]pyrimidin-2-amine]	29.8
Cc1ncnn1-c1ccc(Nc2nc3n(n2)CCCN3c2ccc(F)c(F)c2)cc1F [Example 13, 4-(3,4-difluorophenyl)-N-[3-fluoro-4-(5-methyl-1,2,4-triazol-1-yl)phenyl]-6,7-dihydro-5H-[1,2,4]triazolo[1,5-a]pyrimidin-2-amine]	24.8
Fc1ccc(N2CCCn3nc(Nc4ccc(-n5cncn5)c(F)c4)nc32)cc1F [Example 14, 4-(3,4-difluorophenyl)-N-[3-fluoro-4-(1,2,4-triazol-1-yl)phenyl]-6,7-dihydro-5H-[1,2,4]triazolo[1,5-a]pyrimidin-2-amine]	89.9
COc1cc(Nc2nc3n(n2)CCCN3c2ccc(F)c(F)c2F)ccc1-c1cnc(C)o1 [Example 15, N-[3-methoxy-4-(2-methyloxazol-5-yl)phenyl]-4-(2,3,4-trifluorophenyl)-6,7-dihydro-5H-[1,2,4]triazolo[1,5-a]pyrimidin-2-amine]	14.4
COc1cc(Nc2nc3n(n2)CCCN3c2ccc(F)c(F)c2F)ccc1-n1cnc(C)n1 [Example 16, N-[3-methoxy-4-(3-methyl-1,2,4-triazol-1-yl)phenyl]-4-(2,3,4-trifluorophenyl)-6,7-dihydro-5H-[1,2,4]triazolo[1,5-a]pyrimidin-2-amine]	32.9
COc1cc(Nc2nc3n(n2)CCCN3c2ccc(F)c(F)c2F)ccc1-n1cnc(Cl)c1 [Example 17, N-[4-(4-chloroimidazol-1-yl)-3-methoxy-phenyl]-4-(2,3,4-trifluorophenyl)-6,7-dihydro-5H-[1,2,4]triazolo[1,5-a]pyrimidin-2-amine]	13
Fc1ccc(N2CCCn3nc(Nc4ccc(-n5cnc(Cl)c5)c(F)c4)nc32)cc1F [Example 18, N-[4-(4-chloroimidazol-1-yl)-3-fluoro-phenyl]-4-(3,4-difluorophenyl)-6,7-dihydro-5H-[1,2,4]triazolo[1,5-a]pyrimidin-2-amine]	22.5
Cc1ncc(-c2ccc(Nc3nc4n(n3)CCCN4c3ccc(F)c(F)c3)cc2F)o1 [Example 19, 4-(3,4-difluorophenyl)-N-[3-fluoro-4-(2-methyloxazol-5-yl)phenyl]-6,7-dihydro-5H-[1,2,4]triazolo[1,5-a]pyrimidin-2-amine]	20.4
COc1cc(Nc2nc3n(n2)CCCN3c2ccc(F)c(F)c2)ccc1-c1cnn(C)c1 [Example 20, 4-(3,4-difluorophenyl)-N-[3-methoxy-4-(1-methylpyrazol-4-yl)phenyl]-6,7-dihydro-5H-[1,2,4]triazolo[1,5-a]pyrimidin-2-amine]	28.9
Fc1ccc(N2CCCn3nc(Nc4ccc(-n5cnc(Cl)n5)c(F)c4)nc32)cc1F [Example 21, N-[4-(3-chloro-1,2,4-triazol-1-yl)-3-fluoro-phenyl]-4-(3,4-difluorophenyl)-6,7-dihydro-5H-[1,2,4]triazolo[1,5-a]pyrimidin-2-amine]	102
Cc1ncc(-c2ccc(Nc3nc4n(n3)CCCN4c3ccc(F)c(F)c3)cc2)o1 [Example 22, 4-(3,4-difluorophenyl)-N-[4-(2-methyloxazol-5-yl)phenyl]-6,7-dihydro-5H-[1,2,4]triazolo[1,5-a]pyrimidin-2-amine]	19.8
Fc1ccc(N2CCCn3nc(Nc4ccc(-n5cnc(Cl)c5)cc4)nc32)cc1F [Example 23, N-[4-(4-chloroimidazol-1-yl)phenyl]-4-(3,4-difluorophenyl)-6,7-dihydro-5H-[1,2,4]triazolo[1,5-a]pyrimidin-2-amine]	31.2
N#Cc1cc(Nc2nc3n(n2)CCCN3c2ccc(F)c(F)c2)ccc1-n1cnc(Cl)c1 [Example 24, 2-(4-chloroimidazol-1-yl)-5-[[4-(3,4-difluorophenyl)-6,7-dihydro-5H-[1,2,4]triazolo[1,5-a]pyrimidin-2-yl]amino]benzonitrile]	9
COc1cc(Nc2nc3n(n2)CCCN3c2ccc(F)c(F)c2)ccc1-c1cc(C)n[nH]1 [Example 25, 4-(3,4-difluorophenyl)-N-[3-methoxy-4-(3-methyl-1H-pyrazol-5-yl)phenyl]-6,7-dihydro-5H-[1,2,4]triazolo[1,5-a]pyrimidin-2-amine]	58.5
N#Cc1cc(Nc2nc3n(n2)CCCN3c2ccc(F)c(F)c2)ccc1-n1cnc(C(F)F)c1 [Example 26, 2[4-(difluoromethyl)imidazol-1-yl]-5-[[4-(3,4-difluorophenyl)-6,7-dihydro-5H-[1,2,4]triazolo[1,5-a]pyrimidin-2-yl]amino]benzonitrile]	23.8
Cc1ncc(-c2ccc(Nc3nc4n(n3)CCCN4c3ccc(F)c(F)c3)cc2C#N)o1 [Example 27, 5-[[4-(3,4-difluorophenyl)-6,7-dihydro-5H-[1,2,4]triazolo[1,5-a]pyrimidin-2-yl]amino]-2-(2-methyloxazol-5-yl)benzonitrile]	20.2
Fc1ccc(N2CCCn3nc(Nc4ccc(-n5cnc(Cl)c5)c(Cl)c4)nc32)cc1F [Example 28, N-[3-chloro-4-(4-chloroimidazol-1-yl)phenyl]-4-(3,4-difluorophenyl)-6,7-dihydro-5H-[1,2,4]triazolo[1,5-a]pyrimidin-2-amine]	137
Cc1ncn(-c2ccc(Nc3nc4n(n3)CCCN4c3ccc(F)c(F)c3)cc2)n1 [Example 29, 4-(3,4-difluorophenyl)-N-[4-(3-methyl-1,2,4-triazol-1-yl)phenyl]-6,7-dihydro-5H-[1,2,4]triazolo[1,5-a]pyrimidin-2-amine]	56.1
